Patent US7256042B2, “Process for making hepatocytes from pluripotent stem cells” (Geron Corporation, priority 2000, dated 2007)
Like-named read-outs stand apart in the source and are kept apart here.

Experiments:
[1] = tested on: hES cell derived embryoid bodies; assay: Comparison of potential hepatocyte differentiation agents; assay type: cell-based, human; conditions: for Induction of hepatocyte phenotype: EBs 4 days in suspension, replated on plates coated with collagenase 1, cultured with each compound for 6 days, analogs at 5 mM; for Effect on hepatocyte differentiation (in words): concentration of 5 mM; as to Induction of hepatocyte phenotype: key: +: Causes hepatocyte differentiation and selective elimination of other cell types; −: No inductive effect; ±: Mild inductive effect; may allow growth or survival of other cell types
Description: (§1) The effect of sodium butyrate was compared with other potential hepatocyte differentiation agents in a similar protocol. Embryoid bodies were cultured in suspension for 4 days, and then replated on plates coated with collagenase 1. The cells were then cultured in the presence of each compound for 6 days.

hES cells [2] = assay: Phenotype of hepatocyte lineage cells made using sodium n-butyrate or Trichostatin A; assay type: cell-based, human; conditions: 5 mM sodium n-butyrate; 100 nM Trichostatin A
Description: as §1
At 75-100 nM, Trichostatin A appeared to both induce hepatocyte differentiation and select against survival of other cell types.

[3] = tested on: hES cell derived embryoid body cells; assay: Immunocytochemistry of embryoid body cells cultured 4 days after plating (Example 1)
Description: Confluent monolayer cultures of hES cells on or off feeder cells were harvested by incubating in collagenase for 15-20 min, following which the cells are scraped from the plate. The cells were then dissociated into clusters and plated in non-adherent cell culture plates (Costar) in a medium composed of 80% KO DMEM (Gibco) and 20% non-heat-inactivated FBS (Hyclone), supplemented with 1% non-essential amino acids, 1 mM glutamine, 0.1 mM β-mercaptoethanol. The cells were seeded at a 1:2 ratio in 2 mL medium per well (6 well plate). The EBs were fed every other day by the addition of 2 mL of medium per well. When the volume of medium exceeded 4 mL/well, the EBs were collected and resuspended in fresh medium. After 4-8 days in suspension, the EBs were plated onto a substrate and allowed to differentiate further.
(§2) The fixed cells were rinsed with PBS twice and blocked for 1 hour in 10% goat serum in PBS. They were then incubated in primary antibody diluted in 10% goat serum and PBS for 2 h. Antibody to albumin, alpha fetoprotein (AFP) (Sigma) and α1-antitrypsin (OEB Biosciences Inc.) were diluted at 1:500, cytokeratin, 8, 18 and 19, desmin, (Neomarkers), vimentin (Dako) and SMA (Sigma) were diluted at 1:200. Cells were then washed 3 times with PBS and incubated in secondary antibody, which was FITC-conjugated anti-mouse IgG diluted 1:100 and Hoechst HH33258 (Sigma) at 1:1000 in 5% goat serum in PBS, and incubated for 1 h. The stained cells were then washed 3 times in PBS, and mounted in Vectashield™ (Vector Labs). Images were taken at 10× and 40× using a Nikon Labophot™ equipped with epifluorescence and a spot CCD camera.
Embryoid bodies (EB) were prepared as described in the preceding section. After 5 days in suspension culture, they were harvested and plated on Growth Factor Reduced Matrigel® coated plates and in chamber slides (Nunc). One of the following three conditions was used in parallel: • medium containing 20% fetal bovine serum (FBS); • medium containing 20% FBS and 5 mM sodium butyrate (Sigma); • medium containing 20% FBS, 0.5% DMSO (ATCC), 4 μM dexamethazone (Sigma), 150 ng/ml insulin, 10 ng/ml EGF, 600 nM glucagon (Sigma). In each case, the medium was exchanged every day, and cells were fixed for immunocytochemistry on day 4 after plating.

[4] = tested on: hES cell derived embryoid bodies; assay: Phenotype of embryoid body cells after 6 days with n-butyrate: immunocytochemistry, glycogen (PAS), BrdU (Example 2); assay type: cell-based, human; conditions: EBs on Matrigel, 20% FBS + 5 mM sodium n-butyrate
Description: Cells were grown on chamber slides in the indicated growth medium, and labeled with 10 μM BrdU for 24 h. Cells were then fixed with 3:1 methanol: acetic acid for 30 minutes, and air-dried overnight in the dark. The fixed cells were rinsed once in PBS, and denatured in 0.07 N NaOH for 2 min followed by quick rinses in PBS pH 8.5 and pH7.4 several times. They were then blocked using 1.5% goat serum (Vector Labs) for 15 min, and incubated with anti BrdU antibody (Sigma) diluted 1:500 in 1.5% goat serum and 0.05% Tween™ 20 for 2 h. The samples were washed thrice in PBS, and then incubated with secondary antibody, which was biotinylated goat anti-mouse immunoglobulin (Vector Labs), at 10 μg/mL diluted in 1.5% horse serum for 30 min. […] Hoechst HO33258 stain (bisbenzimide, Sigma Cat. No. B2883) was mixed into the streptavidin solution at 2.5uM final concentration to stain all the nuclei.
The medium was changed daily or every other day. There was a lot of cell death on day 1 followed by less cell death on the subsequent days.
On the sixth day after plating in the differentiation agent, the cells were analyzed for expression of markers by RT-PCR and immunocytochemistry, following the procedures outlined earlier. Glycogen content in these cells was determined using periodic acid Schiff stain. The number of cells in S phase of cell cycle was determined by incubating the cells with 10 μM BrdU on day 5 after plating, and subsequently staining with anti-BrdU antibody 24 hours later.

H9 hES cells = assay: Differentiation of hES cells in feeder-free culture, morphology (Example 5); assay type: cell-based, human; conditions: feeder-free H9 hES cells on laminin, SR medium + 5 mM sodium butyrate, about six days after treatment
Description: Undifferentiated hES colonies were passaged continuously in feeder-free conditions as follows. Cultures were incubated in 1 mg/mL collagenase for about 5 minutes at 37° C. The cells were then harvested by scraping the cells off the surface and dissociating them into small clumps. Cells were split at a 1:3 or 1:6 ratio, ˜55,000 cells/mL (17,000 cells/cm^2). The day after replating, colonies of undifferentiated cells could again be identified. Single cells in between the colonies were differentiated. Over the next few days, the undifferentiated cells were seen to proliferate and the colonies became large and compact. The differentiated cells in between the colonies also became more compact. The cells became confluent after 4-7 days of being fed daily with conditioned media. When the cells reached confluence, they were split once more.
For this example, the H9 hES cells (p30+5) were maintained in feeder-free conditions for 30 days (5 passages) before differentiation. The undifferentiated cells were maintained on laminin and fed with MEF-conditioned medium, as described elsewhere in this disclosure. To induce differentiation, the conditioned medium was replaced with SR medium (without supplemental bFGF) containing 5 mM sodium butyrate.

hES cells [5] = assay: Direct differentiation Protocol 7, cell morphology (FIG. 5); assay type: cell-based, human; conditions: 4 days in SR medium containing butyrate
Description: hES cells undergo the Direct Differentiation protocol detailed earlier, making the adjustments to culture conditions shown in Table 12. Hepatocyte Culture Medium is purchased from Clonetics; Strom's Medium is prepared as described in Runge et al., Biochem. Biophys. Res. Commun. 265:376, 1999. The cell populations obtained are assessed by immunocytochemistry and enzyme activity.
Left column: 10×magnification; Right column: 40×magnification. By 4 days in the presence of butyrate, more than 80% of cells in the culture are large in diameter, containing large nuclei and granular cytoplasm (Row A). After 5 days in SR medium, the cells were switched to HCM. Two days later, many cells are multinucleated, and have a large polygonal shape (Row B). By 4 days in HCM, multinucleated polygonal cells are common, and have a darker cytosol (Row C), by which criteria they resemble freshly isolated human adult hepatocytes (Row D) or fetal hepatocytes (Row E).

[6] = tested on: EBs generated from hES cells; conditions: 20% FBS + 5 mM Na-butyrate, with or without 1% DMSO, 6 days
Description: as §2
EBs were generated from hES cells in feeder-free conditions. After 4 days in suspension, the EBs were plated in 20% FBS medium supplemented with 5 mM Na-butyrate or 5 mM Na-butyrate and 1% DMSO. The EBs were plated on the following matrices: • 1. collagen I (0.03 mg/mL coated overnight at 37° C.) • 2. growth factor reduced Matrigel® (1:10, coated for 1 h at room temp) • 3. gelatin (1% coated for 2 h at 37° C.)
After 6 days in Na-butyrate the cells were evaluated morphologically and using immunocytochemistry for hepatocyte markers.

[7] = tested on: Human ES cell derived embryoid bodies; conditions: 5 mM Na butyrate, with or without 1% DMSO, day 7
[8] = tested on: undifferentiated hES cells; assay: Direct differentiation of hES cells without embryoid bodies, immunocytochemistry (Example 7); assay type: cell-based, human; conditions: 1% DMSO 4 days, then 2.5% Na-butyrate 6 days
Excerpt: The undifferentiated hES cells were maintained in feeder-free conditions (on Matrigel® in MEF-CM). The strategy was to initiate a global differentiation process by adding the hepatocyte maturation factors DMSO or retanoic acid (RA) to a subconfluent culture. The cells are then induced to form hepatocyte-like cells by the addition of Na-butyrate.
The hES cells were maintained in undifferentiated culture conditions for 2-3 days after splitting. At this time, the cells were 50-60% confluent and the medium was exchanged with unconditioned SR medium containing 1% DMSO. The cultures were fed daily with SR medium for 4 days and then exchanged into unconditioned SR medium containing 2.5% Na-butyrate. The cultures were fed daily with this medium for 6 days; at which time one half of the cultures were evaluated by immunocytochemistry. The other half of the cultures were harvested with trypsin and replated onto collagen, to further promote enrichment for hepatocyte lineage cells. Immunocytochemistry was then performed on the following day.

[9] = EBs on Growth Factor Reduced Matrigel, day 4, 20% FBS + 5 mM sodium butyrate, or 20% FBS + 0.5% DMSO + dexamethazone, insulin, EGF, glucagon
[10] = Trypsinization and replating onto collagen, stained the following day

For `CCCCCC(=O)O` [Caproic acid], the “Induction of hepatocyte phenotype” value [1] was “−”.

With `CC(C)C(=O)O` [Isobutyric acid] the “Induction of hepatocyte phenotype” value [1] was “±” and the “Effect on hepatocyte differentiation (in words)” value ([1]; 6 days) was “effective in causing hepatocyte differentiation”.

In the case of `[Cl-].[Na+]` [NaCl], the “Effect on hepatocyte differentiation (in words)” value ([1]; 6 days) is reported as “no effect”.

For `CCC(=O)O` [Propionic acid], the “Effect on hepatocyte differentiation (in words)” value ([1]; 6 days) was “effective in causing hepatocyte differentiation”.

For `CCCC(=O)[O-].[Na+]` [Sodium n-butyrate], the “CK18, positive cells” value (hES cells [2]) was 100%, the “CK19, positive cells” value (hES cells [2]) was 100% and the “Glycogen staining, positive cells” value (hES cells [2]) was greater than 60%. The “albumin, positive cells” value (hES cells [2]) was 62%, the “α1-antitrypsin, positive cells” value (hES cells [2]) was 90% and the “α-fetoprotein, positive cells” value (hES cells [2]) was 0%. The “Cell survival and morphology (in words)” value ([3]; 20% FBS + 5 mM sodium butyrate, 1 day after plating) was “fairly homogenous population of cells survived”, the “AFP, cells showing positive staining” value [3, 9] was “did not express AFP” and the “Albumin, percentage of cells showing positive staining” value [3, 9] was “about 30%”. For the same compound, the “CK8, percentage of cells showing positive staining” value [3, 9] was 100% + ve, the “CK18, percentage of cells showing positive staining” value [3, 9] was 100% + ve and the “CK19, percentage of cells showing positive staining” value [3, 9] was 100% + ve. For the same compound, the “SMA, percentage of cells showing positive staining” value [3, 9] was less than 1% + ve, the “Vimentin, percentage of cells showing positive staining” value [3, 9] was 100% + ve and the “α1-antitrypsin, percentage of cells showing positive staining” value [3, 9] was greater than 60% + ve. For the same compound, the “Albumin, percentage of cells showing positive staining” value ([3]; EBs on Growth Factor Reduced Matrigel, day 4, 20% FBS + 5 mM sodium butyrate, or 20% FBS + 0.5% DMSO + dexamethazone, insulin, EGF, glucagon, listed as Na butyrate) was 30% + ve*, the “Cultured embryoid body derived cells released from the substrate into the medium” value ([3]; first day of culture with the differentiation agent) was “about 90%” and the “Albumin, % positive cells” value ([4]; day 6) was 55%. The “CK8, % positive cells” value ([4]; day 6) was 100%, the “CK18, % positive cells” value ([4]; day 6) was 100% and the “CK19, % positive cells” value ([4]; day 6) was 100%. For the same compound, the “Desmin, % positive cells” value ([4]; day 6) was 0%, the “Glycogen staining (Periodic Acid Schiff), % positive cells” value ([4]; day 6) was 60% and the “α1-antitrypsin, % positive cells” value ([4]; day 6) was 90%. For the same compound, the “α-fetoprotein, % positive cells” value ([4]; day 6) was 0%, the “BrdU staining, % positive cells” value ([4]; 10 μM BrdU on day 5, stained 24 hours later) was 16% and the “Cell morphology (in words)” value (H9 hES cells) was “contained many patches of hepatocyte-like cells”. The “Cells large in diameter, containing large nuclei and granular cytoplasm” value (hES cells [5]; listed as butyrate) was “more than 80%”, the “Cells large in diameter, containing large nuclei and granular cytoplasm” value (hES cells [5]; listed as sodium n-butyrate) was “More than 80%” and the “Effect on hepatocyte differentiation (in words)” value ([1]; 6 days) was “equally effective”. The “Cytokeratin 18, percentage of cells positive” value (“Cytokeratin 18, percentage” below) ([6]; Collagen I) was 100%, the “Cytokeratin 19, percentage of cells positive” value (from here on “Cytokeratin 19, percentage”) ([6]; Collagen I) was 100% and the “Glycogen, percentage of cells positive” value ([6]; Collagen I) was greater than 60%. For the same compound, the “albumin, percentage of cells positive” value ([6]; Collagen I) was 79%, the “α1-antitrypsin, percentage of cells positive” value ([6]; Collagen I) was greater than 90% and the “α-fetoprotein, percentage of cells positive” value ([6]; Collagen I) was 0. For the same compound, the “Cytokeratin 18, percentage” value ([6]; Gelatin) was 100%, the “Cytokeratin 19, percentage” value ([6]; Gelatin) was 100% and the “Glycogen, percentage of cells positive” value ([6]; Gelatin) was greater than 60%. For the same compound, the “albumin, percentage of cells positive” value ([6]; Gelatin) was 50%, the “α1-antitrypsin, percentage of cells positive” value ([6]; Gelatin) was greater than 90% and the “α-fetoprotein, percentage of cells positive” value ([6]; Gelatin) was 0. For the same compound, the “Cytokeratin 18, percentage” value ([6]; Matrigel) was 100%, the “Cytokeratin 19, percentage” value ([6]; Matrigel) was 100% and the “Glycogen, percentage of cells positive” value ([6]; Matrigel) was greater than 60%. For the same compound, the “albumin, percentage of cells positive” value ([6]; Matrigel) was 56%, the “α1-antitrypsin, percentage of cells positive” value ([6]; Matrigel) was greater than 90% and the “α-fetoprotein, percentage of cells positive” value ([6]; Matrigel) was 0. The “Albumin, percentage of cells staining” value ([7]; Gelatin coated plates) was 56%, the “CK18, percentage of cells staining” value ([7]; Gelatin coated plates) was 100% and the “CK19, percentage of cells staining” value ([7]; Gelatin coated plates) was 100%. The “Glycogen, percentage of cells staining” value ([7]; Gelatin coated plates) was greater than 60%, the “α1-antitrypsin, percentage of cells staining” value ([7]; Gelatin coated plates) was greater than 90% and the “α-fetoprotein, percentage of cells staining” value ([7]; Gelatin coated plates) was 0. The “Albumin, percentage of cells staining” value ([7]; Matrigel coated plates) was 50%, the “CK18, percentage of cells staining” value ([7]; Matrigel coated plates) was 100% and the “CK19, percentage of cells staining” value ([7]; Matrigel coated plates) was 100%. The “Glycogen, percentage of cells staining” value ([7]; Matrigel coated plates) was greater than 60%, the “α1-antitrypsin, percentage of cells staining” value ([7]; Matrigel coated plates) was greater than 90% and the “α-fetoprotein, percentage of cells staining” value ([7]; Matrigel coated plates) was 0. The “Cytokeratin 8, % positive” value ([8]; No trypsinization) was greater than 80%, the “Cytokeratin 18, % positive” value ([8]; No trypsinization) was greater than 80% and the “Cytokeratin 19, % positive” value ([8]; No trypsinization) was greater than 80%. The “albumin, % positive” value ([8]; No trypsinization) was 11%, the “glycogen, % positive” value ([8]; No trypsinization) was 0% and the “α1-antitrypsin, % positive” value ([8]; No trypsinization) was greater than 80%. The “α-fetoprotein, % positive” value ([8]; No trypsinization) was 0%, the “Cytokeratin 8, % positive” value [8, 10] was 45% and the “Cytokeratin 18, % positive” value [8, 10] was 30%. The “Cytokeratin 19, % positive” value [8, 10] was 30%, the “albumin, % positive” value [8, 10] was 63% and the “glycogen, % positive” value [8, 10] was greater than 50%. For the same compound, the “α1-antitrypsin, % positive” value [8, 10] was greater than 80% and the “α-fetoprotein, % positive” value [8, 10] was 0%.

In the case of `CC(/C=C/C(=O)NO)=C\[C@@H](C)C(=O)c1ccc(N(C)C)cc1` [Trichostatin A], the “CK18, positive cells” value (hES cells [2]) is reported as greater than 70%, the “CK19, positive cells” value (hES cells [2]) is reported as greater than 90% and the “Glycogen staining, positive cells” value (hES cells [2]) is reported as greater than 50%. For the same compound, the “albumin, positive cells” value (hES cells [2]) was 41%, the “α1-antitrypsin, positive cells” value (hES cells [2]) was 81% and the “Concentration range found ineffective” value ([1]; EB-derived cells, 6 days) was 10 to 50 nM. The “Concentration range found to be toxic to cells” value ([1]; EB-derived cells, 6 days) was 2.5 to 100 µM, the “Concentration range that induces hepatocyte differentiation and selects against survival of other cell types” value ([1]; EB-derived cells, 6 days) was 0.075 to 0.1 µM and the “Induction of hepatocyte phenotype” value [1] was “+”.

`CCCCC(=O)O` [Valeric acid] was tested, and the “Induction of hepatocyte phenotype” value [1] was “−”.

With `CCCC(=O)O` [n-Butyric Acid] the “Effect on hepatocyte differentiation (in words)” value ([1]; 6 days) was “equally effective”.

For `CCC(O)C(=O)O` (stereo not drawn) [α-hydroxybutyric acid], the “Induction of hepatocyte phenotype” value [1] was “−”.

In the case of `CC(O)CC(=O)O` (stereo not drawn) [β-hydroxybutyric acid], the “Induction of hepatocyte phenotype” value [1] is reported as “−”.
